From ChEMBL document CHEMBL4813979 come the findings set out here.

For assay [1], the system named is Mus musculus. Put plainly: Anti-colitis activity against DSS-induced BALB/c mouse model of subchronic relapsing colitis assessed as increase in body weight at 100 mg/kg/day, po administered for 7 days in second week during 2 weeks DSS challenge and measured at the end of 2nd week. The conditions noted are these: time 7.0 day. It is filed as functional, organism-based.

In assay [2] the test system is Mus musculus. Put plainly: Anti-colitis activity against DSS-induced BALB/c mouse model of subchronic relapsing colitis assessed as reduction in fecal blood at 100 mg/kg/day, po administered for 7 days in second week during 2 weeks DSS challenge and measured at the end of 2nd week. It is filed as functional, organism-based. The note with it: time 7.0 day.
In assay [3] the test system is Mus musculus. Put plainly: Anti-colitis activity against DSS-induced BALB/c mouse model of subchronic relapsing colitis assessed as increase in softening of feces at 100 mg/kg/day, po administered for 7 days in second week during 2 weeks DSS challenge and measured at the end of 2nd week. It is filed as functional, organism-based. The conditions noted are these: time 7.0 day.

Assay [4] concerns Mus musculus. Put plainly: Anti-colitis activity against DSS-induced BALB/c mouse model of subchronic relapsing colitis assessed as effect on colon length at 100 mg/kg/day, po administered for 7 days in second week during 2 weeks DSS challenge and measured at the end of 2nd week. It is filed as functional, organism-based. The conditions noted are these: time 7.0 day.
Assay [5] deals with Mus musculus. In words: Anti-colitis activity against DSS-induced BALB/c mouse model of subchronic relapsing colitis assessed as decrease in colon weight to length ratio at 100 mg/kg/day, po administered for 7 days in second week during 2 weeks DSS challenge and measured at the end of 2nd week. It is filed as functional, organism-based. The note with it: time 7.0 day.
Assay [6] concerns Mus musculus. Put plainly: Anti-colitis activity against DSS-induced BALB/c mouse model of subchronic relapsing colitis assessed as increase in body weight at 100 mg/kg/day, ip administered on days 1 and 3 of second week during 2 weeks DSS challenge and measured at the end of 2nd week. It is filed as functional, organism-based. The conditions noted are these: time 1.0 weeks.
For assay [7], the system named is Mus musculus. Put plainly: Anti-colitis activity against DSS-induced BALB/c mouse model of subchronic relapsing colitis assessed as reduction in fecal blood at 100 mg/kg/day, ip administered on days 1 and 3 of second week during 2 weeks DSS challenge and measured at the end of 2nd week. In kind it is functional, organism-based. The note with it: time 1.0 weeks.

In assay [8] the test system is Mus musculus. Put plainly: Anti-colitis activity against DSS-induced BALB/c mouse model of subchronic relapsing colitis assessed as increase in softening of feces at 100 mg/kg/day, ip administered on days 1 and 3 of second week during 2 weeks DSS challenge and measured at the end of 2nd week. In kind it is functional, organism-based. The note with it: time 1.0 weeks.

Assay [9] deals with Mus musculus. Put plainly: Anti-colitis activity against DSS-induced BALB/c mouse model of subchronic relapsing colitis assessed as effect on colon length at 100 mg/kg/day, ip administered on days 1 and 3 of second week during 2 weeks DSS challenge and measured at the end of 2nd week. The note with it: time 1.0 weeks. In kind it is functional, organism-based.
Assay [10] has as its target Glycogen synthase kinase-3 beta (Mus musculus) (UniProt Q9WV60). In words: Inhibition of GSK3-beta in mouse J774.1 cells assessed as reduction in LPS/IFN-gamma-induced NF-kappaB expression at 10 uM measured within 15 mins by Western blot analysis. It is filed as cell-based.

Active and inactive are the calls of the source. The calls are words filed in the database; no cut-off is given here.

Sequence of Glycogen synthase kinase-3 beta (Mus musculus) (Q9WV60 whole entry, looked up): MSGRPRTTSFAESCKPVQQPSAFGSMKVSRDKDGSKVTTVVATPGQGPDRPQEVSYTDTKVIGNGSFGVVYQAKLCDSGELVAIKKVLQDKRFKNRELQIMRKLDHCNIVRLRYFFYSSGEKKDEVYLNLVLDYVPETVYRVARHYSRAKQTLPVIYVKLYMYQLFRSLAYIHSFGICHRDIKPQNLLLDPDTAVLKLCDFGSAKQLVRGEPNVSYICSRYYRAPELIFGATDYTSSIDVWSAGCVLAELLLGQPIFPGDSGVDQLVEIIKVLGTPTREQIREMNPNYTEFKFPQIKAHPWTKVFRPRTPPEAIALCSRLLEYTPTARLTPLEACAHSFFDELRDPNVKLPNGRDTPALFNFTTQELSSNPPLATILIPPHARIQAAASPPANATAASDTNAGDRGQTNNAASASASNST

Consider `O=C(O)c1cc(/N=N/c2ccc(S(=O)(=O)Nc3ccccn3)cc2)ccc1O`, for which the result with Mus musculus [1] and with Mus musculus [4] was inactive. Further, the outcome in the assay on Mus musculus [2], with Mus musculus [3] and in the assay on Mus musculus [5] was Active.
As to `S=C(S)N1CCCC1`, the outcome with Mus musculus [6], in the assay on Mus musculus [7] and in the assay with Mus musculus [8] was Active. Besides, in the assay on Mus musculus [9], the outcome was inactive.
As for `C[S+]([O-])CCCCCCN=C=S` (stereo not given), the inhibition entry in assay [10] is “Active”.
